Data set [1] in a line: Stability studies on guanfacine prodrugs in buffers. Format: physicochemical.
Data set [2] is described as follows: Comparative bioavailability study of guanfacine in monkeys given guanfacine or guanfacine prodrug. Format: in vivo, monkey. The conditions noted are these: for Prodrug Cmax: monkeys, 0.5 mg/kg guanfacine free base equivalents. Here is the method: Blood samples were taken at various times after administration and submitted to analysis for the parent drug and prodrug using a qualified LC-MS-MS assay. The following pharmacokinetic parameters derived from the plasma analytical data were determined using Win Nonlin;

The mark [3] stands for this setting: pH 1.2, 37° C., 0.1M HCl/NaCl buffer, 1 h.
[4] abbreviates: pH 1.2, 37° C., 0.1M HCl/NaCl buffer, time 0.
[5] abbreviates: pH 3.0, 20° C., 0.1M citrate buffer, 2 h.
[6] abbreviates: pH 3.0, 20° C., 0.1M citrate buffer, time 0.
The mark [7] stands for this setting: pH 6.8, 37° C., 0.1M phosphate buffer, 2 h.
The mark [8] stands for this setting: pH 6.8, 37° C., 0.1M phosphate buffer, time 0.
Setting [9] is: pH 7.4, 37° C., 0.1M phosphate buffer, 2 h.
Where [10] appears, read: pH 7.4, 37° C., 0.1M phosphate buffer, time 0.
Setting [11] is: DMSO, organic solvent or mixture, Solubility, in DMSO.
Where [12] appears, read: water/CH3CN (1:1), aqueous with cosolvent or surfactant or cyclodextrin, Solubility, in water/CH3CN (1:1).
The mark [13] stands for this setting: pH 1.2, 37° C., 0.1M HCl/NaCl buffer, 1 h, Hydrochloride.
Where [14] appears, read: pH 3.0, 20° C., 0.1M citrate buffer, 2 h, Hydrochloride.
Setting [15] is: pH 6.8, 37° C., 0.1M phosphate buffer, 2 h, Hydrochloride.
[16] abbreviates: pH 7.4, 37° C., 0.1M phosphate buffer, 2 h, Hydrochloride.
The mark [17] stands for this setting: pH 1.2, 37° C., 0.1M HCl/NaCl buffer, time 0, Hydrochloride.

“And” between values parts separate entries of the source, which are not always exact repeats. Equal entries are not always repeated.

Consider `CCCOC(=O)NC(N)=NC(=O)Cc1c(Cl)cccc1Cl.Cl` [Compound 4, 1-{N′-[2-(2,6-Dichloro-phenyl)acetyl]-guanidinocarbonyloxy}propane Hydrochloride], for which the Active drug in data set [1] (setting [3]), in data set [1] (setting [4]), in data set [1] (setting [5]), in data set [1] (setting [6]), in data set [1] (setting [7]) and in data set [1] (setting [8]) was 0.0 throughout. For the same molecule, the Active drug in data set [1] (setting [9]) and in data set [1] (setting [10]) was 0.0 each time. The Pro-drug in data set [1] (pH 1.2, 37° C., 0.1M HCl/NaCl buffer, 1 h, listed as Guanfacine N-Propyl Carbamate Hydrochloride, Hydrochloride) is 94.4 and 94.6; in data set [1] (setting [4]), 100; in data set [1] (pH 3.0, 20° C., 0.1M citrate buffer, 2 h, listed as Guanfacine N-Propyl Carbamate Hydrochloride, Hydrochloride), 94.0 and 94.4; in data set [1] (setting [6]), 100; in data set [1] (pH 6.8, 37° C., 0.1M phosphate buffer, 2 h, listed as Guanfacine N-Propyl Carbamate Hydrochloride, Hydrochloride) it was 95.8 and 96.4; in data set [1] (setting [8]), 100. The Pro-drug in data set [1] (pH 7.4, 37° C., 0.1M phosphate buffer, 2 h, listed as Guanfacine N-Propyl Carbamate Hydrochloride, Hydrochloride) is 96.3 and 96.0; in data set [1] (setting [10]), 100. Moreover, the “Prodrug Cmax” value in data set [2] was “BLQ”. Besides, the solubility is greater than 10000 µg/mL in the data set “Solubility” (setting [11]); less than 1000 µg/mL in the data set “Solubility” (water, Solubility, in water); greater than 1000 µg/mL in “Solubility” (setting [12]).

`CC(C)OC(=O)NC(N)=NC(=O)Cc1c(Cl)cccc1Cl.Cl` [Compound 5, 2-{N′-[2-(2,6-Dichloro-phenyl)acetyl]-guanidinocarbonyloxy}propane Hydrochloride]: in data set [2], the “Prodrug Cmax” value is “BLQ”. For the same molecule, the solubility in the data set “Solubility” (3.0 mL CH3CN/3.0 mL H2O, aqueous with cosolvent or surfactant or cyclodextrin, Solubility, in 3.0 mL CH3CN/3.0 mL H2O) is greater than 833 µg/mL; in the data set “Solubility” (setting [11]), greater than 10000 µg/mL; in the data set “Solubility” (water, Solubility, in water) it was less than 1000 µg/mL.

Regarding `CCCCOC(=O)NC(N)=NC(=O)Cc1c(Cl)cccc1Cl.Cl` [Compound 6, 1-{N′-[2-(2,6-Dichloro-phenyl)-acetyl]-guanidinocarbonyloxy}butane Hydrochloride], the Active drug in data set [1] (setting [3]), in data set [1] (setting [4]), in data set [1] (setting [5]), in data set [1] (setting [6]), in data set [1] (setting [7]) and in data set [1] (setting [8]) was 0.0 throughout. For the same molecule, the Active drug in data set [1] (setting [9]) and in data set [1] (setting [10]) was 0.0 in each case. Further, the Pro-drug in data set [1] (setting [3]) is 94.0; in data set [1] (setting [4]) it was 100; in data set [1] (pH 3.0, 20° C., 0.1M citrate buffer, 2 h, listed as Guanfacine N-Butyl Carbamate Hydrochloride, Hydrochloride) it was 94.6 and 94.9; in data set [1] (setting [6]), 100; in data set [1] (pH 6.8, 37° C., 0.1M phosphate buffer, 2 h, listed as Guanfacine N-Butyl Carbamate Hydrochloride, Hydrochloride), 90.9 and 90.7; in data set [1] (setting [8]) it was 100. Further, the Pro-drug in data set [1] (pH 7.4, 37° C., 0.1M phosphate buffer, 2 h, listed as Guanfacine N-Butyl Carbamate Hydrochloride, Hydrochloride) is 90.7 and 91.0; in data set [1] (setting [10]) it was 100. Besides, in data set [2], the “Prodrug Cmax” value was “BLQ”. The solubility in “Solubility” (setting [11]) was greater than 10000 µg/mL; in the data set “Solubility” (water, Solubility, in water), less than 1000 µg/mL; in the data set “Solubility” (setting [12]), greater than 1000 µg/mL.

For `NC(=NC(=O)Cc1c(Cl)cccc1Cl)NC(=O)OCCCO` [Compound 22, 3-{N′-[2-(2,6-Dichloro-phenyl)-acetyl]-guanidinocarbonyloxy}propan-1-ol], the Active drug in data set [1] (setting [3]), in data set [1] (setting [4]), in data set [1] (setting [5]), in data set [1] (setting [6]), in data set [1] (setting [7]) and in data set [1] (setting [8]) was 0.0 throughout. Also, the Active drug in data set [1] (setting [9]) and in data set [1] (setting [10]) was 0.0 in each case. Besides, the Pro-drug in data set [1] (pH 1.2, 37° C., 0.1M HCl/NaCl buffer, 1 h, listed as Guanfacine (3-Hydroxypropyl) Carbamate) is 94.8 and 94.9; in data set [1] (setting [4]), 100; in data set [1] (pH 3.0, 20° C., 0.1M citrate buffer, 2 h, listed as Guanfacine (3-Hydroxypropyl) Carbamate) it was 98.1 and 98.3; in data set [1] (setting [6]) it was 100; in data set [1] (pH 6.8, 37° C., 0.1M phosphate buffer, 2 h, listed as Guanfacine (3-Hydroxypropyl) Carbamate), 99.2 and 99.7; in data set [1] (setting [8]) it was 100. In addition, the Pro-drug turned out to be 98.2 in data set [1] (setting [9]) and 100 in data set [1] (setting [10]). For the same molecule, the Cmax in data set [2] (monkey, plasma, po, 0.5 mg/kg) was found to be 3.49 ng/mL. For the same molecule, the solubility was greater than 10000 µg/mL in “Solubility” (setting [11]); less than 1000 µg/mL in the data set “Solubility” (water, Solubility, in water); greater than 10000 µg/mL in the data set “Solubility” (setting [12]).

With `CCSC(=O)NC(N)=NC(=O)Cc1c(Cl)cccc1Cl.Cl` [Compound 30, Guanfacine Ethanethiol Carbamate Hydrochloride], the Active drug was 10.1 and 11.0 in data set [1] (setting [13]); 0.0 in data set [1] (setting [4]); 0.0 in data set [1] (setting [5]); 0.0 in data set [1] (setting [6]); 0.0 in data set [1] (setting [7]); 0.0 in data set [1] (setting [8]). For the same molecule, the Active drug in data set [1] (setting [9]) and in data set [1] (setting [10]) was 0.0 throughout. Besides, the Pro-drug is 81.0 and 80.4 in data set [1] (setting [13]); 100 in data set [1] (setting [4]); 85.6 and 84.8 in data set [1] (setting [14]); 100 in data set [1] (setting [6]); 93.0 and 92.5 in data set [1] (setting [15]); 100 in data set [1] (setting [8]). The Pro-drug is 94.5 and 95.2 in data set [1] (setting [16]); 100 in data set [1] (setting [10]). In addition, in data set [2], the “Prodrug Cmax” value is “BLQ”. Moreover, the solubility is greater than 10000 µg/mL in “Solubility” (in DMSO), less than 1000 µg/mL in the data set “Solubility” (in water) and greater than 5000 µg/mL in “Solubility” (in water/CH3CN (1:2)).

For the molecule `CC(C)(C)OC(=O)NC(=N)NC(=O)Cc1c(Cl)cccc1Cl.Cl` [Guanfacine Tert-Butyl Carbamate Hydrochloride], the Pro-drug was 0.0 in data set [1] (setting [3]); 91.2 and 90.5 in data set [1] (setting [17]); 34.5 in data set [1] (setting [5]); 100 in data set [1] (setting [6]); 83.6 and 84.9 in data set [1] (setting [15]); 100 in data set [1] (setting [8]). In addition, the Pro-drug in data set [1] (setting [16]) is 84.2 and 82.7; in data set [1] (setting [10]), 100. The Active drug in data set [1] (setting [13]) was 99.7 and 100; in data set [1] (setting [17]), 8.8 and 9.5; in data set [1] (setting [14]), 66.6 and 65.5; in data set [1] (setting [6]), 0.0; in data set [1] (setting [15]), 14.2 and 15.2; in data set [1] (setting [8]) it was 0.0. The Active drug was 11.0 and 11.2 in data set [1] (setting [16]); 0.0 in data set [1] (setting [10]). Also, the solubility in the data set “Solubility” (in 2 mL CH3CN/1 mL H2O) is greater than 5 mg; in “Solubility” (in DMSO), greater than 10000 µg/mL; in the data set “Solubility” (in water), less than 1000 µg/mL.

Regarding `N=C(NC(=O)Cc1c(Cl)cccc1Cl)NC(=O)OC[C@@H](N)Cc1cnc[nH]1.O=C(O)C(F)(F)F.O=C(O)C(F)(F)F.O=C(O)C(F)(F)F` [Guanfacine-(S)-histidinyl carbamate Tri-trifluoroacetate], the Active drug in data set [1] (setting [3]) was 1.7 and 1.8; in data set [1] (setting [4]), 0.5 and 0.6; in data set [1] (setting [5]), 1.2 and 1.3; in data set [1] (setting [6]), 0.4 and 0.5; in data set [1] (setting [7]), 87.1 and 88.1; in data set [1] (setting [8]) it was 1.6 and 1.4. For the same molecule, the Active drug in data set [1] (setting [9]) is 85.4 and 85.8. In addition, the Pro-drug in data set [1] (setting [3]) was 84.7 and 83.3; in data set [1] (setting [4]), 99.5 and 99.4; in data set [1] (setting [5]), 98.1 and 97.8; in data set [1] (setting [6]), 99.6 and 99.5; in data set [1] (setting [7]) it was 0.0; in data set [1] (setting [8]), 98.4 and 98.6. Moreover, the Pro-drug is 0.0 in data set [1] (setting [9]); 99.2 and 98.1 in data set [1] (setting [10]). In addition, the solubility in “Solubility” (in DMSO) and in “Solubility” (in water) was greater than 20000 µg/mL in each case.

The values are drawn from patent US20120065152A1 (SHIRE LLC, priority 2010, published 2012).
